Where two headings read alike, the source gives them in different places.
Key:
P-gp [1] = target: T1, P-gp (Homo sapiens, UniProt P08183); conditions: 1 h
Description: (§1) The intracellular accumulation of the fluorescent probes, Dox and Rho123, was determined by monitoring its fluorescence intensity using flow cytometry (96-well plate format), as previously reported. The inhibition on the outward transport of these P-gp substrates results in an increased […] fluorescence intensity (MFI). […] Those compounds showing inhibition on P-gp at the maximum tested concentration were further evaluated at serial dilutions to determinate their MECs. […] The plates were then incubated in a 5% CO2 incubator for 1 h at 37 °C. Afterwards, 5 μM Dox was added to each well. The other fluorescent specific substrate of P-gp, Rho123, however, was added at 500 ng/mL to additionally measure the ability of the most promising compounds to block its efflux. Subsequently, cells from both assays were washed twice with cold PBS, and 15,000 events from each sample were analyzed to determine the cell-associated fluorescence. Dead cells were eliminated by means of forward- and side-scatter parameters. […] The blocking of the P-gp transport function was evaluated by the parameter FIR, calculated as the ratio of the MFI of Dox or Rho123 with the addition of the likely inhibitor to the MFI of Dox or Rho123 alone.

K562 cells = experiment: Doxorubicin intracellular accumulation assay (flow cytometry) in K562; format: cell-based; design: key: MFI with inhibitor / MFI of Dox alone; conditions: 5 μM Dox
Description: as §1

SphK2 = conditions: previously found; cited from earlier work
SphK1 = conditions: previously found; cited from earlier work
[2] = MTT cytotoxicity assay in Lucena 1; format: cell-based; conditions: human, Lucena 1 cells, read-out: IC50 (cytotoxicity) against Lucena 1
Description: (§2) Then 0.5 mg/mL MTT in PBS was added. After additional incubation for 4 h, the formazan crystals obtained were dissolved in DMSO and the absorbance at 595 nm was read on an iMark micro-plate reader (Bio-Rad, USA). IC50 values for cytotoxicity were then calculated as reported[50] using nonlinear regression by GraphPad Prism 7 (Graphpad Software, Inc., San Diego, CA, USA, www.graphpad.com).
(§3) The cells were incubated at 37 °C at 5% CO2 for 48 h and the same protocol described above was followed. IC50 values of Dox were then obtained.

[3] = MTT cytotoxicity assay in K562; format: cell-based; conditions: human, K562 cells, read-out: IC50 (cytotoxicity) against K562
Description: as §2, §3

P-gp [4] = target: T1, P-gp
Description: The intracellular accumulation of the fluorescent probes, Dox and Rho123, was determined by monitoring its fluorescence intensity using flow cytometry (96-well plate format), as previously reported. The inhibition on the outward transport of these P-gp substrates results in an increased […] fluorescence intensity (MFI). […] The plates were then incubated in a 5% CO2 incubator for 1 h at 37 °C. Afterwards, 5 μM Dox was added to each well. The other fluorescent specific substrate of P-gp, Rho123, however, was added at 500 ng/mL to additionally measure the ability of the most promising compounds to block its efflux. Subsequently, cells from both assays were washed twice with cold PBS, and 15,000 events from each sample were analyzed to determine the cell-associated fluorescence. Dead cells were eliminated by means of forward- and side-scatter parameters. […] The blocking of the P-gp transport function was evaluated by the parameter FIR, calculated as the ratio of the MFI of Dox or Rho123 with the addition of the likely inhibitor to the MFI of Dox or Rho123 alone.

T1 sequence (P08183 whole entry): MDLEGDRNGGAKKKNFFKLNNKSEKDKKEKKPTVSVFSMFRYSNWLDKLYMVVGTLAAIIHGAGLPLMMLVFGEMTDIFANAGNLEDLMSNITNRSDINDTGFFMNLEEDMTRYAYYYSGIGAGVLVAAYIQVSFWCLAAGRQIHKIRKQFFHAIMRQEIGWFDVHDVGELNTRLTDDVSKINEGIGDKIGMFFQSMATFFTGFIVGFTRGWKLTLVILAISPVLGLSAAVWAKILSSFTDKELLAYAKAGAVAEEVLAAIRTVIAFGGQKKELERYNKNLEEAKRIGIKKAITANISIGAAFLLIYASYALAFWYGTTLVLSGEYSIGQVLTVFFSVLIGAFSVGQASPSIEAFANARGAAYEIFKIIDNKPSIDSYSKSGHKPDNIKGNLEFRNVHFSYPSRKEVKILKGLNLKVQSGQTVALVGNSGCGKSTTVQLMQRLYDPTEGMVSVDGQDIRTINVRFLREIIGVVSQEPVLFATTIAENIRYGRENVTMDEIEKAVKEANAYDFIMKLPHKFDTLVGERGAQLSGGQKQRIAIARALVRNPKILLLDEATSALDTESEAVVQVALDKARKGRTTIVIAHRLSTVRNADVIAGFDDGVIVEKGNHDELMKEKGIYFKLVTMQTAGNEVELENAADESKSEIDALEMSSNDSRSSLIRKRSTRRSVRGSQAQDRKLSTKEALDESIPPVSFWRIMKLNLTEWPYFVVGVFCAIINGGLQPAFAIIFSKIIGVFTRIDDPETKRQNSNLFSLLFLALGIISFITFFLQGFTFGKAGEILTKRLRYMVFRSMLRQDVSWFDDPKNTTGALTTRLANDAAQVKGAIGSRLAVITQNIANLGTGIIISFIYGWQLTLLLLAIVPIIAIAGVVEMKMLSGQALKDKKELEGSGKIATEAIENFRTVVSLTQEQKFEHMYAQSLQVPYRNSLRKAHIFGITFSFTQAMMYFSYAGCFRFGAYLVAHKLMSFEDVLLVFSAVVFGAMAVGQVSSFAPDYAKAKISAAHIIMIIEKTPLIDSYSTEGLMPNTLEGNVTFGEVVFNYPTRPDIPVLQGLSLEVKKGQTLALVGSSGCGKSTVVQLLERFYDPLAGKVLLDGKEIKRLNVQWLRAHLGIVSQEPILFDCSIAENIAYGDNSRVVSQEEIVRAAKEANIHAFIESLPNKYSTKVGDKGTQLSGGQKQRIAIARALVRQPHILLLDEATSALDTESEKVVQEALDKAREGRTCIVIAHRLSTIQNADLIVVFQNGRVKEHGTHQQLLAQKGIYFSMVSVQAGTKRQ

SMILES | minimum effective concentration (MEC), Dox accumulation (P-gp [1]) | FIR Lucena 1 (P-gp [1]; 5 µM) | FIR Lucena 1 (P-gp [1]; 10 µM) | FIR Lucena 1 (P-gp [1]; 20 µM) | FIR Lucena 1 (P-gp [1]; 1.25 µM) | FIR Lucena 1 (P-gp [1]; 2.5 µM) | FIR Lucena 1 (P-gp [1]; 0.31 µM) | FIR Lucena 1 (P-gp [1]; 0.62 µM) | Rho123 fluorescence intensity, fold lower in Lucena 1 with respect to K562 (P-gp [4]) | FIR K562 (K562 cells; compound 20 µM) | FIR K562 (K562 cells; compound 5 µM) | FIR K562 (K562 cells; compound 10 µM) | IC50 against SphK2 (SphK2) | IC50 against SphK1 (SphK1) | IC50 at 48 h [2] | IC50 at 48 h [3]
CC(=O)c1ccc(Nc2nccc(-c3ccc4ccccc4c3)n2)cc1 [Compound 3] | 10 µM | 1.06 ± 0.05 | 1.24 ± 0.02 | 1.70 ± 0.22 |  |  |  |  |  | 0.98 ± 0.07 |  |  |  |  |  | 
O=c1[nH]c2ccccc2cc1CNc1ccc(Nc2nccc(-c3ccc(Cl)cc3)n2)cc1 [Compound 4a] | 20 µM |  | 1.03 ± 0.01 | 1.21 ± 0.04 |  |  |  |  |  | 0.89 ± 0.03 |  |  |  |  |  | 
COc1ccc2[nH]c(=O)c(CNc3ccc(Nc4nccc(-c5ccc(Cl)cc5)n4)cc3)cc2c1 [Compound 4b] | 2.5 µM | 1.20 ± 0.06 | 1.23 ± 0.08 | 1.29 ± 0.08 | 1.10 ± 0.13 | 1.20 ± 0.06 |  |  |  | 0.90 ± 0.03 |  |  |  |  |  | 
COc1cc2cc(CNc3ccc(Nc4nccc(-c5ccc(Cl)cc5)n4)cc3)c(=O)[nH]c2cc1OC [Compound 4c] | 0.62 µM | 1.32 ± 0.09 | 1.28 ± 0.07 | 1.39 ± 0.07 | 1.24 ± 0.08 | 1.31 ± 0.11 | 1.03 ± 0.01 | 1.11 ± 0.03 |  | 0.93 ± 0.02 |  |  |  |  |  | 
Clc1ccc(-c2ccnc(N3CCNCC3)n2)cc1 [Compound 6] |  | 1.18 ± 0.03 | 1.38 ± 0.08 | 1.65 ± 0.12 | 1.09 ± 0.06 | 1.18 ± 0.04 |  |  |  | 1.20 ± 0.02 | 1.09 ± 0.04 | 1.19 ± 0.02 |  |  |  | 
c1ccc2cc(-c3ccnc(N4CCNCC4)n3)ccc2c1 [Compound 7] |  | 1.19 ± 0.05 | 1.42 ± 0.02 | 2.23 ± 0.26 |  | 1.07 ± 0.10 |  |  |  | 1.20 ± 0.06 |  | 1.10 ± 0.08 |  |  | 17.9 ± 0.55 µM | 
NCCN1CCN(c2nccc(-c3ccc(Cl)cc3)n2)CC1 [Compound 10] | 1.25 µM | 1.41 ± 0.09 | 1.30 ± 0.05 | 1.72 ± 0.14 | 1.11 ± 0.03 | 1.26 ± 0.04 |  | 1.06 ± 0.04 |  | 1.18 ± 0.03 |  | 0.98 ± 0.06 |  |  |  | 
COc1cc2cc(COc3nccc(-c4ccc(Cl)cc4)n3)c(=O)[nH]c2cc1OC [Compound 11] | 1.25 µM | 1.38 ± 0.07 | 1.30 ± 0.07 | 2.87 ± 0.55 | 1.14 ± 0.02 | 1.23 ± 0.04 |  | 1.02 ± 0.02 |  | 1.44 ± 0.03 |  | 1.01 ± 0.02 |  |  | 10.7 ± 0.15 µM | 3.8 ± 0.1 µM
COC(=O)c1ccccc1-c1c2ccc(=N)cc-2oc2cc(N)ccc12 [Rhodamine 123, reference compound] |  |  |  |  |  |  |  |  | 5.87 fold |  |  |  |  |  |  | 
COc1cccc2c1C(=O)c1c(O)c3c(c(O)c1C2=O)C[C@@](O)(C(=O)CO)C[C@@H]3O[C@H]1C[C@H](N)[C@H](O)[C@H](C)O1 [doxorubicin, reference compound] |  |  |  |  |  |  |  |  |  |  |  |  |  |  | 23 ± 5.41 µM | 0.64 ± 0.13 µM
COc1ccc(CCN(C)CCCC(C#N)(c2ccc(OC)c(OC)c2)C(C)C)cc1OC (stereo not drawn) [verapamil, reference compound] |  |  |  |  |  |  |  |  |  | 1.08 ± 0.05 |  |  |  |  |  | 

The next lines start with results.

minimum effective concentration (MEC), Dox accumulation (P-gp [1]) | FIR Lucena 1 (P-gp [1]; 5 µM) | FIR Lucena 1 (P-gp [1]; 10 µM) | FIR Lucena 1 (P-gp [1]; 20 µM) | FIR Lucena 1 (P-gp [1]; 1.25 µM) | FIR Lucena 1 (P-gp [1]; 2.5 µM) | FIR Lucena 1 (P-gp [1]; 0.31 µM) | FIR Lucena 1 (P-gp [1]; 0.62 µM) | Rho123 fluorescence intensity, fold lower in Lucena 1 with respect to K562 (P-gp [4]) | SMILES | FIR K562 (K562 cells; compound 20 µM) | FIR K562 (K562 cells; compound 5 µM) | FIR K562 (K562 cells; compound 10 µM) | IC50 against SphK2 (SphK2) | IC50 against SphK1 (SphK1) | IC50 at 48 h [2] | IC50 at 48 h [3]
2.50 µM | 1.06 ± 0.01 | 1.10 ± 0.02 | 1.24 ± 0.07 | 0.95 ± 0.05 | 1.05 ± 0.01 |  |  |  | O=c1[nH]c2ccccc2cc1CNc1ccc(Nc2nccc(-c3ccc4ccccc4c3)n2)cc1 [Compound 5a] | 0.86 ± 0.02 |  |  |  |  |  | 
0.62 µM | 1.31 ± 0.08 | 1.25 ± 0.07 | 1.36 ± 0.08 | 1.21 ± 0.07 | 1.29 ± 0.08 | 1.07 ± 0.03 | 1.16 ± 0.07 |  | COc1ccc2[nH]c(=O)c(CNc3ccc(Nc4nccc(-c5ccc6ccccc6c5)n4)cc3)cc2c1 [Compound 5b] | 0.96 ± 0.02 |  |  |  |  |  | 
5 µM | 1.15 ± 0.05 | 1.30 ± 0.05 | 1.40 ± 0.05 |  | 1.06 ± 0.04 |  |  |  | O=c1[nH]c2ccccc2cc1CN1CCN(c2nccc(-c3ccc(Cl)cc3)n2)CC1 [Compound 6a] | 0.92 ± 0.04 |  |  |  |  |  | 
2.5 µM | 1.32 ± 0.09 | 1.44 ± 0.13 | 1.55 ± 0.07 | 1.01 ± 0.03 | 1.15 ± 0.05 |  |  |  | COc1ccc2[nH]c(=O)c(CN3CCN(c4nccc(-c5ccc(Cl)cc5)n4)CC3)cc2c1 [Compound 6b] | 0.94 ± 0.10 |  |  |  |  |  | 
0.62 µM | 1.32 ± 0.09 | 1.49 ± 0.20 | 1.68 ± 0.12 | 1.19 ± 0.07 | 1.32 ± 0.08 | 1.00 ± 0.01 | 1.11 ± 0.03 |  | COc1cc2cc(CN3CCN(c4nccc(-c5ccc(Cl)cc5)n4)CC3)c(=O)[nH]c2cc1OC [Compound 6c] | 0.79 ± 0.007 |  |  | no activity | no activity |  | 
1.25 µM | 1.38 ± 0.11 | 1.52 ± 0.17 | 1.33 ± 0.11 | 1.10 ± 0.03 | 1.28 ± 0.12 |  | 0.95 ± 0.02 |  | O=c1[nH]c2ccccc2cc1CN1CCN(c2nccc(-c3ccc4ccccc4c3)n2)CC1 [Compound 7a] | 1.02 ± 0.07 |  |  |  |  |  | 
0.62 µM | 1.27 ± 0.04 | 1.29 ± 0.11 | 1.45 ± 0.10 | 1.24 ± 0.05 | 1.23 ± 0.02 | 1.08 ± 0.05 | 1.22 ± 0.07 |  | COc1cc2cc(CN3CCN(c4nccc(-c5ccc6ccccc6c5)n4)CC3)c(=O)[nH]c2cc1OC [Compound 7c] | 1.04 ± 0.03 |  |  |  |  | 10.2 ± 0.23 µM | 6.7 ± 0.2 µM
1.25 µM | 1.30 ± 0.08 | 1.63 ± 0.17 | 2.36 ± 0.25 | 1.13 ± 0.03 | 1.21 ± 0.02 |  | 1.04 ± 0.03 |  | NCCN1CCN(c2nccc(-c3ccc4ccccc4c3)n2)CC1 [Compound 10a] | 1.26 ± 0.06 | 0.98 ± 0.01 | 1.13 ± 0.02 |  |  | 17.1 ± 0.95 µM | 17.7 ± 0.15 µM

From article PMC8376931, “Structure activity relationships and the binding mode of quinolinone-pyrimidine hybrids as reversal agents of multidrug resistance mediated by P-gp” (Scientific Reports, 2021)
